In patent US8450355B2, “Compounds for the treatment of inflammatory diseases” (Merck Sharp & Dohme Corp., priority 2008, dated 2013):
Like-named read-outs stand apart in the source and are kept apart here.

Legend:
[1] = test system: TNF-α production from human whole blood; assay: Inhibition of TNF-α production from human whole blood (hWBA); assay type: cell-based; conditions: human whole blood diluted 1:1, LPS stimulation, 3.5 h, TNF-α by ELISA
Procedure: Assay for Inhibition of TNF-α Production from Human Whole Blood (hWBA)
Human whole blood was diluted 1:1 with serum free medium (RPMI, L-glutamine, Pen-Strep, HEPES) and incubated with a test compound in a final volume of 360 μL for 1 h at 37° C. Forty microliters of LPS (10 μg/mL) was then added. Supernatant was collected after 3.5 h incubation and the concentration of TNF-α was determined by ELISA (R&D Systems). The concentration of the test compound which inhibits 50% of the amount of TNF-α from the control untreated control was determined.

[2] = Area under the curve determination of plasma levels in rats (rapid rat AUC); assay type: in vivo; conditions: oral, 10 mg/kg, blood 0.5-6 h post-dosing, read-out: RR AUC
Procedure: Area Under the Curve Determinations of Plasma Levels in Rats (rrAUC)
To gain insight into the pharmacokinetic properties of the compounds of formula (I), plasma levels of the compounds in rats were determined according to the protocol described in Korfmacher, W. A.; Cox, K. A.; Ng, K. J.; Veals, J.; Hsieh, Y.; Wainhaus, S.; Broske, L.; Prelusky, D.; Nomeir, A.; White, R. E. Rapid Commun. Mass Spectrom, 2001, 15, 335, Briefly, rats, after an overnight fast, were dosed orally with the test compound at a dose of 10 mg/kg in a 5 mL/kg dose volume. Blood was collected at 0.5, 1, 2, 3, 4, and 6 h post-dosing. Mass spectrometry using high performance liquid chromatography was used to identify and measure the concentrations of the test compounds in the plasma at the various time points. The parent ion of each test compound was used to identify and quantitate the compounds in plasma.

Row | Structure (SMILES) | IC50 ([1]; Table A) | IC50 ([1]; Table B) | other results
1 | COc1ccc2c(c1)C(=O)N(C[C@@](N)(C(=O)O)c1cc3cnccc3o1)C2 [Compound 1120A] | > 10 µM | – | –
2 | COc1ccc2c(c1)C(=O)N(C[C@@](O)(C(=O)O)c1cc3cnccc3[nH]1)C2 [Compound 1120B] | > 10 µM | – | –
3 | COc1c(F)cc2c(c1F)C(=O)N(CC1(C#Cc3ccc(C4(CN)NC(=O)NC4=O)cc3)NC(=O)NC1=O)C2 (centres unmarked) [Compound 1150] | > 10 µM | – | –
4 | COc1c(F)cc2c(c1F)C(=O)N(C[C@@]1(c3cc4cnccc4o3)NC(=O)NC1=O)C2 [Compound 1160] | 7.14 µM | – | –
5 | COc1c(F)cc2c(c1F)C(=O)N(CC1(c3cc4cnccc4o3)NC(=O)NC1=O)C2 (centres unmarked) [Compound 1165] | > 10 µM | – | –
6 | COc1c(F)cc2c(c1F)C(=O)N(CC1(c3cc4ncccc4o3)NC(=O)NC1=O)C2 (centres unmarked) [Compound 1170] | > 10 µM | – | –
7 | COc1c(F)cc2c(c1F)C(=O)N(C[C@@]1(c3cc4ncccc4o3)NC(=O)NC1=O)C2 [Compound 1175] | 7.12 µM | – | –
8 | COc1c(F)cc2c(c1F)C(=O)N(C[C@@]1(C#Cc3ccc(C(N)=O)cc3)NC(=O)NC1=O)C2 [Compound 1180] | 1.43 µM | – | –
9 | COc1c(F)cc2c(c1F)C(=O)N(CC1(c3cc4nc(N5CCC(N(C)C)CC5)ccc4o3)NC(=O)NC1=O)C2 (centres unmarked) [Compound 1190] | > 10 µM | – | –
10 | COC(=O)[C@@](CN1Cc2ccc(OC)c(F)c2C1=O)(NC(N)=O)c1cc2nc(Cl)c(F)cc2o1 [Compound 1304] | 3.1 µM | – | AUC ([2]; Table A): 113 nM·h
11 | COc1ccc2c(c1)C(=O)N(C[C@@]1(c3cc4nc(C(=N)NO)ccc4o3)NC(=O)NC1=O)C2 [Compound 1500] | 0.64 µM | – | –
12 | CCN1CCN(C(=N)c2ccc3oc([C@]4(CN5Cc6ccc(OC)cc6C5=O)NC(=O)NC4=O)cc3n2)CC1 [Compound 1501] | 1.89 µM | – | –
13 | COc1ccc2c(c1)C(=O)N(C[C@@]1(c3cc4nc(C(=N)N5CCCN(C)CC5)ccc4o3)NC(=O)NC1=O)C2 [Compound 1502] | 1.82 µM | – | –
14 | Cc1cc2cc3c(c(F)c2o1)C(=O)N(CC1(c2cc4nc(-c5cn[nH]c5)ccc4o2)NC(=O)NC1=O)C3 (centres unmarked) [Compound 1700] | 0.501 µM | – | –
15 | Cc1cc2c3c(ccc2o1)CN(C[C@@]1(c2cc4ncccc4o2)NC(=O)NC1=O)C3=O [Compound 1701] | > 10 µM | – | –
16 | COCc1cc2c3c(ccc2o1)CN(C[C@@]1(c2cc4ncccc4o2)NC(=O)NC1=O)C3=O [Compound 1702] | > 10 µM | – | –
17 | O=C1NC(=O)[C@](CN2Cc3ccc4oc(Cc5ccccc5)cc4c3C2=O)(c2cc3ncccc3o2)N1 [Compound 1703] | > 10 µM | – | –
18 | O=C1NC(=O)[C@](CN2Cc3ccc4oc(C5CC5)cc4c3C2=O)(c2cc3ncccc3o2)N1 [Compound 1704] | > 10 µM | – | –
19 | COc1ccc2c(c1)C(=O)N(C[C@@]1(C(=O)Cc3nc(Nc4cn[nH]c4)ccc3O)NC(=O)NC1=O)C2 [Compound 1705] | 0.292 µM | – | –
20 | CCN1CCCN(c2ccc(O)c(CC(=O)[C@]3(CN4Cc5ccc(OC)c(F)c5C4=O)NC(=O)NC3=O)n2)CC1 [Compound 1707] | 1.57 µM | – | –
21 | COc1ccc2c(c1)C(=O)N(C[C@@]1(c3cc4nc(C(=N)N)ccc4o3)NC(=O)NC1=O)C2 [Compound 2200] | – | 0.307 µM | –
22 | COc1c(Cl)cc2c(c1Cl)C(=O)N(C[C@@]1(c3cc4cnccc4o3)NC(=O)NC1=O)C2 [Compound 2201] | – | ≥ 10 µM | –
23 | COc1ccc2c(c1)CCN(C[C@@]1(c3cc4c5c(ccc4o3)C3(CC5)NC(=O)NC3=O)NC(=O)NC1=O)C2=O (some centres unmarked) [Compound 2203] | – | 3.56 µM | –
24 | COc1ccc2c(c1)C(=O)N(C[C@@]1(c3cc4cc(/C(=N\O)N(C)CCN(C)C)ccc4o3)NC(=O)NC1=O)C2 [Compound 2206] | – | 0.384 µM | –

Row | Structure (SMILES) | IC50 ([1]; Table A) | IC50 ([1]; Table B) | other results
25 | CCN(CC)CCN(C)/C(=N/O)c1ccc2oc([C@]3(CN4Cc5ccc(OC)cc5C4=O)NC(=O)NC3=O)cc2c1 [Compound 2207] | – | 0.308 µM | –
26 | CCN(CC)CCN(CC)/C(=N/O)c1ccc2oc([C@]3(CN4Cc5ccc(OC)cc5C4=O)NC(=O)NC3=O)cc2c1 [Compound 2208] | – | 0.281 µM | –
27 | COc1ccc2c(c1)C(=O)N(C[C@@]1(c3cc4cc(NS(N)(=O)=O)ccc4o3)NC(=O)NC1=O)C2 [Compound 2209] | – | 0.315 µM | –
28 | COc1ccc2c(c1)C(=O)N(C[C@@]1(c3cc4c5c(ccc4o3)C3(CC5)NC(=O)NC3=O)NC(=O)NC1=O)C2 (some centres unmarked) [Compound 2210] | – | 0.187 µM | AUC ([2]; Table B): 321 nM·h
29 | COc1ccc2c(c1)C(=O)N(C[C@@]1(c3cc4c5c(ccc4o3)C3(CCC5)NC(=O)NC3=O)NC(=O)NC1=O)C2 (some centres unmarked) [Compound 2211] | – | 0.57 µM | AUC ([2]; Table B): 55 nM·h
30 | COc1ccc2c(c1)C(=O)N(C[C@@]1(c3cc4c5c(ccc4o3)C3(CC5)CNC(=O)N3)NC(=O)NC1=O)C2 (some centres unmarked) [Compound 2213] | – | 0.335 µM | –
31 | COc1ccc2c(c1)C(=O)N(C[C@@]1(c3cc4ccc5c(c4o3)CCC53NC(=O)NC3=O)NC(=O)NC1=O)C2 (some centres unmarked) [Compound 2214] | – | 1.01 µM | AUC ([2]; Table B): 128 nM·h
32 | COc1ccc2c(c1)C(=O)N(C[C@@]1(c3cc4ccc5c(c4o3)CCC53CNC(=O)N3)NC(=O)NC1=O)C2 (some centres unmarked) [Compound 2215] | – | 0.628 µM | –
33 | COc1ccc2c(c1F)C(=O)N(C[C@@]1(c3cc4c5c(ccc4o3)C3(CC5)NC(=O)NC3=O)NC(=O)NC1=O)C2 (some centres unmarked) [Compound 2216] | – | 0.145 µM | AUC ([2]; Table B): 1600 nM·h
34 | COc1ccc2c(c1)CCN(C[C@@]1(c3cc4c5c(ccc4o3)CNC5=O)NC(=O)NC1=O)C2=O [Compound 2217] | – | 1.94 µM | –
35 | COc1ccc2c(c1)CCN(C[C@@]1(c3cc4nc(-c5cn[nH]c5)ccc4o3)NC(=O)NC1=O)C2=O [Compound 2218] | – | 0.284 µM | –
36 | COc1ccc2c(c1)CCN(C[C@@]1(c3cc4cnccc4o3)NC(=O)NC1=O)C2=O [Compound 2219] | – | 1.37 µM | –
37 | COc1ccc2c(c1)C(=O)N(C[C@@]1(c3cc4c5c(ccc4o3)CCC53NC(=O)NC3=O)NC(=O)NC1=O)C2 (some centres unmarked) [Compound 2223] | – | 1 µM | –
38 | CCCN(C)C(=NO)c1ccc(C#C[C@]2(CN3Cc4ccc(OC)cc4C3=O)NC(=O)NC2=O)cc1 [Compound 2224] | – | 0.239 µM | –
39 | COc1ccc2c(c1)C(=O)N(C[C@@]1(C#Cc3ccc(C(=NO)N(C)C)s3)NC(=O)NC1=O)C2 [Compound 2227] | – | 0.813 µM | –
40 | COc1ccc2c(c1)C(=O)N(C[C@@]1(C#Cc3ccc(C(=NO)N(C)CCN(C)C)cc3)NC(=O)NC1=O)C2 [Compound 2228] | – | 0.091 µM | –
41 | CCN(CC)CCN(C)C(=NO)c1ccc(C#C[C@]2(CN3Cc4ccc(OC)cc4C3=O)NC(=O)NC2=O)cc1 [Compound 2229] | – | 0.096 µM | –
42 | COc1ccc2c(c1)C(=O)N(C[C@@]1(C#Cc3ccc(C(=O)NS(N)(=O)=O)cc3)NC(=O)NC1=O)C2 [Compound 2230] | – | 0.434 µM | –
43 | COc1ccc2c(c1)C(=O)N(C[C@@]1(C#Cc3ccc(C(=NO)N(C)C)cc3)NC(=O)NC1=O)C2 [Compound 2231] | – | 0.152 µM | –
44 | CCN(CC)C(=NO)c1ccc(C#C[C@]2(CN3Cc4ccc(OC)cc4C3=O)NC(=O)NC2=O)cc1 [Compound 2234] | – | 0.205 µM | –
45 | COc1ccc2c(c1)C(=O)N(C[C@@]1(C#Cc3ccc(C(C(N)=O)N4CCCN(C(=O)OC(C)(C)C)CC4)cc3)NC(=O)NC1=O)C2 (some centres unmarked) [Compound 2237] | – | 1.18 µM | –
46 | COc1ccc2c(c1)C(=O)N(C[C@@]1(C#Cc3ccc(C(C(=O)O)N4CCCN(C(=O)OC(C)(C)C)CC4)cc3)NC(=O)NC1=O)C2 (some centres unmarked) [Compound 2238] | – | 1.02 µM | –
47 | COc1ccc2c(c1)C(=O)N(C[C@@]1(C#Cc3ccc(NC(=S)NCCN4CCOCC4)cc3)NC(=O)NC1=O)C2 [Compound 2239] | – | 0.267 µM | –
48 | COc1ccc2c(c1)C(=O)N(C[C@@]1(C(=O)Cc3nc(NC4CCN(C)CC4)ccc3O)NC(=O)NC1=O)C2 [Compound 2241] | – | 1.27 µM | –
